Values quoted from earlier work as cited in patent US8821904B2, “Topical composition and use thereof for the prophylaxis and the treatment of defects connected to inflammatory dermopathies” (Skinius S.R.L., priority 2010, dated 2014).

Tested on: seborrhoeic eczema
Conditions: topically applied, after four weeks of treatment

CC(=O)N1CCN(c2ccc(OCC3COC(Cn4ccnc4)(c4ccc(Cl)cc4Cl)O3)cc2)CC1 (stereo not shown) [ketoconazole]
Improvement of seborrhoeic eczema, percentage of the cases: 75%
